Laboratory results reported in patent publication US20200316159A1, “SUSTAINED RELEASE COMPOSITIONS OF KAPPA-OPIOID RECEPTOR AGONIST” (JT PHARMACEUTICALS, INC., priority 2016, published 2020).
“Also recorded” adds a separate entry of the source.

Key:
[1] = test system: dysphoria (time spent immobile); assay: Forced swim assay; assay type: in vivo, rat
Method: The most common reason for discontinuing development of kappa agonists is the induction of dysphoria, which is mediated through CNS kappa receptors. To test for this side effect, we used an established model: the repeated forced swim assay. Rats were placed in a container with 30° C. water without an escape avenue. Time spent immobile during the last 4 min of each trial was recorded. Immobility was defined by a posture in which the forelimbs were motionless in front of the body, hind legs display limited motion, and the tail is directed outward. On day one, rats were placed in the water for 15 min. On the following day, placements consisted of four trials lasting 6 min each, separated by 10 mins. Salvorin A (1 mg/kg, i.p.) or JT09 (20 mg/kg, p.o.) were administered immediately before the first placement. Time spent immobile is a diagnostic of dysphoria and typically increases with each trial. Salvinorin A (a centrally available kappa agonist) was used as a positive control due to its known […] effects such as dysphoria.

[2] = Multiple dose study (14 days); assay type: in vivo, rat; conditions: 30 mg/kg oral daily for 14 days
Source text: Tolerance to the analgesic effects of the lead compounds was be assessed using the acetic acid-induced writhing assay (described above). Daily clinical observations for behavioral toxicity (described above) were made during the course of the experiment and body weight and food consumption recorded on study days 3, 5, 7, 9, 11 and 13. On day 15, animals were sacrificed in their home cages by carbon dioxide inhalation from a compressed gas tank. A gross necroscopic analysis was immediately performed following euthanasia.

[3] = test system: peripheral pain (acetic acid-induced writhing); assay: Acetic acid-induced writhing model (Example 1); assay type: in vivo, rat (male Sprague-Dawley)
Method: Acetic Acid-Induced Writhing Model.
This protocol is a well-established model of peripheral pain. Following oral or i.v. administration of compound, rats are rested for 20 min before i.p. injection with 2 ml/kg of 3% acetic acid. Animals are then rested an additional 10 min before being placed in a 10×10 inch chamber. A video of the rats is then recorded for next 20 min. The video is subsequently blindly scored by an investigator who examines each rat every 20 sec for the entire 20 min (60 individual observations). At each observation rats are scored on whether they are writhing or not. Writhing is defined as a constriction of the abdominal area, often with extension of the hind legs. At the end of the experiment the percent of the time the animal was writhing was calculated. The dose-response curves and EC50 values were generated using GraphPad Prism®.
As an initial biological screen the potential for oral availability of the 18 peptides in our library were evaluated in a well-established model of peripheral pain, the acetic acid-induced writhing assay. Rats were administered the various compounds by oral gavage at a screening dose of 20 mg/kg 20 min before i.p. injection with 2 ml/kg of 3% acetic acid. 10 min later animals were assessed for writhing as indicated in the methods section. […] Thus, several of the Arg modifications can impart CR665 with the ability to cross the gut barrier. Compounds 3, 7, 9, 11 and 17 were selected for further analysis.

[4] = Maximum tolerated dose determination; assay type: in vivo, rat; conditions: p.o., six rats per dose level, observed 4 days
Method: Maximum Tolerated Dose Determination.
In order to determine the maximum dose of JT09 that can be tolerated, its dose level was increased until the maximum tolerated dose (MTD) was identified or, if MTD dose was not reached, the maximum-administered dose (MAD). […] Six rats were included at each dose level (50, 70, and 90 mg/kg, p.o.). The animals were observed twice daily; body weights and detailed clinical observations for behavioral toxicity (porphyrin staining, changes in activity levels, changes in grooming habits, convulsions, catalepsy, muscular rigidity, and excessive vocalization) were made daily for 4 days after dosing at each level. Doses were chosen based on the compound's ED50 for analgesic potency.

[5] = test system: sedation (distance traveled); assay: Locomotor open field test
Method: Locomotor Open Field Test.
Sedation and a loss of muscle coordination are common CNS-mediated side effects of opioids. To assess the sedative effects of JT09, rats were given JT09 (20 mg/kg, p.o.) or morphine (10 mg/kg, i.p.) 20 min before placement in an automated (68 l×21 w×21 h cm) activity chambers for a 30 min test. Morphine was used as a comparison group due to its well-known sedative effects.

For CCCC[C@@H](NC(=O)[C@@H](Cc1ccccc1)NC(=O)[C@H](N)Cc1ccccc1)C(=O)N[C@H](CCCCN(C)C)C(=O)NCc1ccncc1 [Compound 9], the “immobility time in forced swim versus saline” value ([1]; 20 mg/kg p.o., listed as JT09) was “statistically indistinguishable; also recorded: did not induce more than a baseline time of immobility”, the “immobility time in forced swim relative to salvinorin A” value ([1]; JT09 20 mg/kg p.o. versus salvinorin A 1 mg/kg i.p., all trials) was “lower amounts of time spent immobile” and the “tolerance (negative CNS-mediated effects associated with morphine)” value [2] was “does not promote”. The “gross necropsy: heart, stomach, intestines, liver, spleen, pancreas, kidneys, adrenal glands, skeletal muscle, bone, reproductive organs, brain” value ([2]; six rats) was “grossly normal”, the “gross necropsy: lungs” value ([2]; attributed to CO2 euthanasia hemorrhage) was “slight grey discoloration” and the “EC50, i.v. dose response in writhing assay” value ([3]; i.v.) was 0.032 mg/kg. The “EC50, oral dose-response in acetic acid writhing model” value ([3]; oral) was 4.7 mg/kg, the “maximum administered dose (MAD) without mortality, loss of more than 10% body weight or overt signs of toxicity” value [4] was 90 mg/kg and the “locomotor activity (distance traveled) versus saline” value ([5]; 20 mg/kg p.o., 30 min test) was “statistically indistinguishable”. For the same molecule, the “locomotor activity relative to morphine” value ([5]; JT09 20 mg/kg p.o. versus morphine 10 mg/kg i.p., time bins 1, 2 and 5) was “higher locomotor activity” and the “sedation in locomotor test” value ([5]; JT09 20 mg/kg p.o., morphine 10 mg/kg i.p.) was “showed no sedation”.
